Data on 13 compounds can be found in US9493446B2, “Orexin receptor antagonists which are [ortho bi-(hetero-)aryl]-[2-(meta bi-(hetero-)aryl)-pyrrolidin-1-yl]-methanone derivatives” (Actelion Pharmaceuticals Ltd, priority 2012, dated 2016).

Read-outs that look alike come from different tables or passages of the source.

One assay has as its target orexin-1 (Homo sapiens (Human), UniProt O43613). The assay is described as follows: Intracellular calcium measurement (FLIPR), CHO cells expressing human orexin-1 receptor, 3 nM orexin-A. It is filed as cell-based. Particulars: CHO cells expressing human orexin-1 receptor, FLIPR, 3 nM orexin-A; geometric mean if determined several times; read-out: IC50 OX1. The essentials:
(§1)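 Fluo-4 AM-loaded CHO cells; antagonist preincubation 120 min, then 3 nM orexin-A (final) in HBSS/0.1% BSA/20 mM HEPES. FLIPR read at 1 s intervals; peak height vs. agonist-plus-vehicle control → IC50.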
A general note: Calcium assays in cells follow changes in intracellular calcium, usually with a dye or a luminescent sensor.

A further assay deals with human orexin-2 receptor (Homo sapiens (Human), UniProt O43614). Kind of assay: Intracellular calcium measurement (FLIPR), CHO cells expressing human orexin-2 receptor, 3 nM orexin-A. It is filed as cell-based. Conditions: read-out: IC50 OX2. The essentials:
as §1

Where [1] appears, read: CHO cells expressing human orexin-2 receptor, FLIPR, 3 nM orexin-A, geometric mean if determined several times.

Sequence of orexin-1 (O43613 whole entry): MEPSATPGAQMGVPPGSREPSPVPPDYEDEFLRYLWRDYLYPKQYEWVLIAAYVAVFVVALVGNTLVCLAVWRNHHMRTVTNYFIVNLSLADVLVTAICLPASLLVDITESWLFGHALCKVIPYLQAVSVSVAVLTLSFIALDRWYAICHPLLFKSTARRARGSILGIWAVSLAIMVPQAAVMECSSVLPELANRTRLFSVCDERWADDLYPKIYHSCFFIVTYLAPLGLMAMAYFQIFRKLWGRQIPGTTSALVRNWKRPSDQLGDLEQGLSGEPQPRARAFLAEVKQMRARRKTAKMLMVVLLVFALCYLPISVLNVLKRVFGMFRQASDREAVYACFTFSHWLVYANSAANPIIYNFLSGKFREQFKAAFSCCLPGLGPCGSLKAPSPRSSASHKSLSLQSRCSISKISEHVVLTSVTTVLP
Sequence of human orexin-2 receptor (O43614 whole entry): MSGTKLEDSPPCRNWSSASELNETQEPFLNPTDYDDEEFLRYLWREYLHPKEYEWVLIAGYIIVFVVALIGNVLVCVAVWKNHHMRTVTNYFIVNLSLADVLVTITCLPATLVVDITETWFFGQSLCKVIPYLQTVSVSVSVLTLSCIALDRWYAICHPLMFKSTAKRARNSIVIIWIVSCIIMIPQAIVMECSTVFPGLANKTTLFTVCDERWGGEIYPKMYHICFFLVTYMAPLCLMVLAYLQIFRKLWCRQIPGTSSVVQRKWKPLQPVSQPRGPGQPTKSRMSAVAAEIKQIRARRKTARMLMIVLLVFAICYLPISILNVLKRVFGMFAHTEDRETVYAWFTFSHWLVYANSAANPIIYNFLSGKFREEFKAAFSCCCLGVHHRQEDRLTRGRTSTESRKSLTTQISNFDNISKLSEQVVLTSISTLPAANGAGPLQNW

For the compound `COc1ccc(-c2nnc([C@@H]3CCCN3C(=O)c3cc(C)ccc3-n3nccn3)o2)cc1` [Example 457, {(S)-2-[5-(4-Methoxy-phenyl)-[1,3,4]oxadiazol-2-yl]-pyrrolidin-1-yl}-(5-methyl-2-[1,2,3]triazol-2-yl-phenyl)-methanone], the IC50 – broadly, the concentration that inhibits the measured activity by half – at orexin-1 worked out at 17000 nM; on human orexin-2 receptor (setting [1]) it was 3440 nM.

Turning to `Cc1ccc(-n2nccn2)c(C(=O)N2CCC[C@H]2c2nc(-c3cccc4[nH]ccc34)no2)c1` [compound 39, {(S)-2-[3-(1H-Indol-4-yl)-[1,2,4]oxadiazol-5-yl]-pyrrolidin-1-yl}-(5-methyl-2-[1,2,3]triazol-2-yl-phenyl)-methanone], the IC50 amounted to 658 nM on orexin-1 and 92 nM at human orexin-2 receptor (setting [1]).

Take `Cc1ccc(-n2nccn2)c(C(=O)N2CCC[C@H]2c2nc(-c3cnn(C)c3)no2)c1` [compound 60, {(S)-2-[3-(1-Methyl-1H-pyrazol-4-yl)-[1,2,4]oxadiazol-5-yl]-pyrrolidin-1-yl}-(5-methyl-2-[1,2,3]triazol-2-yl-phenyl)-methanone]: the IC50 at orexin-1 was above 1420 nM; at human orexin-2 receptor (setting [1]), 419 nM.

For the compound `Cc1nc(C(=O)N2CCC[C@H]2c2nc(-c3cccc(Cl)c3C)no2)c(-c2ccccc2F)s1` [compound 124], the IC50 at orexin-1 was 145 nM; at human orexin-2 receptor (setting [1]) it was 77 nM.

For the compound `COc1ccc(-n2cccn2)c(C(=O)N2CCC[C@H]2c2nc(-c3ccccc3OC(F)(F)F)no2)c1` [compound 157, (5-Methoxy-2-pyrazol-1-yl-phenyl)-{(S)-2-[3-(2-trifluoromethoxy-phenyl)-[1,2,4]oxadiazol-5-yl]-pyrrolidin-1-yl}-methanone], the IC50 at orexin-1 was determined as 99 nM; on human orexin-2 receptor (setting [1]), 73 nM.

For `Cc1cc(F)cc(C(=O)N2CCC[C@H]2c2nc(-c3cccc(Cl)c3C)no2)c1-n1nccn1` [compound 132], the IC50 at orexin-1 came out at 831 nM; at human orexin-2 receptor, 250 nM.

In the case of `COc1cc(C(=O)N2CCC[C@H]2c2nc(-c3cccc(Cl)c3C)no2)c(-c2ncccn2)cc1C` [compound 269], the figures for the IC50 on orexin-1 and at human orexin-2 receptor (setting [1]) were 177 nM and 12 nM, respectively.

Turning to `Cc1ccc(-c2ccccn2)c(C(=O)N2CCC[C@H]2c2nc(-c3cccc(Cl)c3C)no2)c1` [compound 90], the IC50 on orexin-1 came to 137 nM; at human orexin-2 receptor (setting [1]), 25 nM.

Turning to `COc1c(F)cccc1-c1noc([C@@H]2CCCN2C(=O)c2cccc(F)c2-c2ccn[nH]2)n1` [compound 202, {(S)-2-[3-(3-Fluoro-2-methoxy-phenyl)-[1,2,4]oxadiazol-5-yl]-pyrrolidin-1-yl}-[3-fluoro-2-(2H-pyrazol-3-yl)-phenyl]-methanone], the IC50 at orexin-1 came out at 53 nM; at human orexin-2 receptor (setting [1]) it was 10 nM.

For `O=C(c1ccccc1-n1nccn1)N1CCC[C@H]1c1nnc(-c2ccccc2OC(F)(F)F)[nH]1` [compound 503, (2-[1,2,3]Triazol-2-yl-phenyl)-{(S)-2-[5-(2-trifluoromethoxy-phenyl)-4H-[1,2,4]triazol-3-yl]-pyrrolidin-1-yl}-methanone], the values for the IC50 at orexin-1 and at human orexin-2 receptor (setting [1]) were 156 nM and 27 nM, respectively.

As for `COc1cc(C(=O)N2CCC[C@H]2c2noc(-c3cccc(Cl)c3OC)n2)c(-n2nccn2)cc1Cl` [compound 347], the IC50 was found to be 15 nM at orexin-1 and 1 nM on human orexin-2 receptor (setting [1]).

As to `Cc1ccc(-c2ccccn2)c(C(=O)N2CCC[C@H]2c2nc(-c3ccccc3OC(F)(F)F)no2)c1` [compound 138, (5-Methyl-2-pyridin-2-yl-phenyl)-{(S)-2-[3-(2-trifluoromethoxy-phenyl)-[1,2,4]oxadiazol-5-yl]-pyrrolidin-1-yl}-methanone], the IC50 is 49 nM at orexin-1 and 30 nM on human orexin-2 receptor (setting [1]).

In the case of `COc1ccc(-c2noc([C@@H]3CCCN3C(=O)c3cc(C)ccc3-n3nccn3)n2)cc1OC` [compound 82, {(S)-2-[3-(3,4-Dimethoxy-phenyl)-[1,2,4]oxadiazol-5-yl]-pyrrolidin-1-yl}-(5-methyl-2-[1,2,3]triazol-2-yl-phenyl)-methanone], the IC50 at orexin-1 is 874 nM; at human orexin-2 receptor (setting [1]), 131 nM.
